From paper PMC11423305, “Structure-Based Design of CBP/EP300 Degraders: When Cooperativity Overcomes Affinity” (JACS Au, 2024) come the findings set out here.

In the assay the test system is crebbp and ep300 expression. Description: Gene expression analysis by RT-qPCR in LP1 cells. In kind it is cell-based. Particulars: 16 h, 1 μM, normalized to hprt. The procedure:
cooperativity factor (α) was defined as the ratio of the IC50 values in the absence and […]
For the ternary complex experiments, the final assay composition was: 0.1 % DMSO, 5 nM GST-CBP, 5 nM CRBN-Avi(biotin), 100 mM KF, 0.625 nM XL665-Streptavidin conjugate and 0.8 nM anti-GST mAb – Eu3+-cryptate. The maximal control contained 40 nM dCBP-1, the blank contained no PROTAC. Hook curves were generated by normalization to the maximal control.
LP1 cells were cultured in DMEM (Gibco, 41966-029) supplemented with 15 % FBS (Sigma, F9665); MM1S and LNCaP cells in RPMI 1640 ATCC modification (Gibco, […]
DMEM/F12 (Gibco, 11320074) supplemented with 1 % non-essential amino acids […]
Quantification of CBP/EP300 degradation by Western blotting
LP1 cells plated on 6 well plates were treated with the stated compounds at a final concentration of 0.1 % DMSO for the stated time. […] Protein concentrations were determined using the Pierce ™ BCA Protein Assay Kit (Thermo Scientific, 23227) and equal amounts were separated on 4-12 % ExpressPl us™ PAGE gels (GenScript, M41215). […]
SuperSignal™ West Pico PLUS Chemiluminescent Substrate (Thermo Scientific, 34580) and the Vilber Fusion-FX7 imager. Bands were quantified using ImageJ software and protein levels normalized to protein from DMSO treated cells run on the same membrane. […]

Take `Cc1cc2c(NC(=O)c3cc(NC(=O)CCCCCCCCCCNc4cccc5c4C(=O)N(C4CCC(=O)NC4=O)C5=O)cc(-c4ccn(C)n4)c3)cccc2nn1` (stereo not shown) [dCE-2]: the “crebbp and ep300 expression” value is on record as “mild upregulation”.
